Source: patent publication US9580390B2, “Indazole compounds as kinase inhibitors and method of treating cancer with same” (University Health Network, priority 2011, dated 2017)
Read-outs that look alike come from different tables or passages of the source.

Columns and labels:
human TTK = biological target: T1, human TTK (Homo sapiens, UniProt P33981); assay: TTK inhibition assay (indirect ELISA); type: biochemical; conditions: read-out: TTK IC50 Range
T1 construct: amino terminal GST fusion of full length human TTK; purchased Invitrogen
T1 sequence (P33981 1-857): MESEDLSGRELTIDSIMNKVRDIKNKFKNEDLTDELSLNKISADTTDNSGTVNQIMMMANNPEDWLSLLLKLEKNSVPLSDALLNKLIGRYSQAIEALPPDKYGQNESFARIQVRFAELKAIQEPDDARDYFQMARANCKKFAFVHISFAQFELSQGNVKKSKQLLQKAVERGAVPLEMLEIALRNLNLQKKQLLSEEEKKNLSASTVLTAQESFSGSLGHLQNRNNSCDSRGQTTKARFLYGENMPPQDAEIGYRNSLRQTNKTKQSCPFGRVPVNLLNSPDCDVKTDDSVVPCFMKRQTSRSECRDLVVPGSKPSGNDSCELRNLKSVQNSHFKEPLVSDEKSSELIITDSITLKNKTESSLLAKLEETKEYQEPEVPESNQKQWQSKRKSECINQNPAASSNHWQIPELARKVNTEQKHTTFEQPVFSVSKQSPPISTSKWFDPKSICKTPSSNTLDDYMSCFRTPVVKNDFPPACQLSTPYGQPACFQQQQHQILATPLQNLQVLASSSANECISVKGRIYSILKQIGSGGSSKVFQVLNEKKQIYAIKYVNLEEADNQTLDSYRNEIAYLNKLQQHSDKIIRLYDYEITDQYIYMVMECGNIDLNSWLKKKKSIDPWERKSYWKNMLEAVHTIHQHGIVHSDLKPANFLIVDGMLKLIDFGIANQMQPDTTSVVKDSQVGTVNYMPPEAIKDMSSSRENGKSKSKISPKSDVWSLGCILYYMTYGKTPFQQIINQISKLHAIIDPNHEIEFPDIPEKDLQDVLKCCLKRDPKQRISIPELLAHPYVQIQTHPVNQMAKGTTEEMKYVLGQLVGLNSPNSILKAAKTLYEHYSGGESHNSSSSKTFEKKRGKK

Breast cancer cells = assay: Cancer cell line growth inhibition (SRB assay); type: cell-based; conditions: Homo sapiens; MDA-MB-468; read-out: Cancer Cell Line GI50 Range MDA-MB-468
[1] = test system: colon cancer cells (HCT116); assay: Cancer cell line growth inhibition (SRB assay); type: cell-based; conditions: Homo sapiens, HCT-116, read-out: Cancer Cell Line GI50 Range HCT116
[2] = test system: ovarian cancer cells (PA-1); assay: Cancer cell line growth inhibition (SRB assay); type: cell-based; conditions: read-out: Cancer Cell Line GI50 Range PA-1
[3] = HCT116 colon cancer cells, SRB assay
[4] = PA-1 ovarian cancer cells, SRB assay

SMILES	IC50 (human TTK) [nM]	GI50 (Breast cancer cells) [nM]	GI50 [1] [nM]	GI50 ([2]; Homo sapiens, PA-1) [nM]	GI50 [1, 3] [nM]	GI50 [2, 4] [nM]
CC(C)(O)CN1CCC(Oc2ccc(-c3n[nH]c4ccc(C(=O)N[C@H](c5ccsc5)C5CC5)cc34)cc2)CC1 [Example A218, (S)-N-(cyclopropyl(thiophen-3-yl)methyl)-3-(4-((1-(2-hydroxy-2-methylpropyl)piperidin-4-yl)oxy)phenyl)-1H-indazole-5-carboxamide]	< 100	100 to 500	100 to 500	100 to 500	–	–
O=C(N[C@H](c1ccsc1)C1CC1)c1ccc2[nH]nc(-c3ccc(OC4CCN(C[C@@H](O)C(F)(F)F)CC4)cc3)c2c1 [Example A223, N-((S)-cyclopropyl(thiophen-3-yl)methyl)-3-(4-((1-((R)-3,3,3-trifluoro-2-hydroxypropyl)piperidin-4-yl)oxy)phenyl)-1H-indazole-5-carboxamide]	< 100	> 500	100 to 500	100 to 500	–	–
O=C(N[C@@H](c1ccsc1)C1CC1)c1ccc2[nH]nc(-c3ccc(OC4CCN(C[C@@H](O)C(F)(F)F)CC4)cc3)c2c1 [Example A224, N-((R)-cyclopropyl(thiophen-3-yl)methyl)-3-(4-((1-((R)-3,3,3-trifluoro-2-hydroxypropyl)piperidin-4-yl)oxy)phenyl)-1H-indazole-5-carboxamide]	< 100	> 500	100 to 500	100 to 500	–	–
O=C(N[C@H](c1ccccn1)C1CC1)c1ccc2[nH]nc(-c3ccc(OC4CCN(C[C@@H](O)C(F)(F)F)CC4)cc3)c2c1 [Example A225, N-((S)-cyclopropyl(pyridin-2-yl)methyl)-3-(4-((1-((R)-3,3,3-trifluoro-2-hydroxypropyl)piperidin-4-yl)oxy)phenyl)-1H-indazole-5-carboxamide]	< 100	100 to 500	< 100	< 100	–	–
CN1[C@@H]2CC[C@H]1C[C@@H](Oc1ccc(-c3n[nH]c4ccc(C(=O)NC(c5ccccc5)C(F)F)cc34)cc1)C2 (stereo partly drawn) [Example A227, N-(2,2-difIuoro-1-phenylethyl)-3-(4-(((1R,3R,5S)-8-methyl-8-azabicyclo[3.2.1]octan-3-yl)oxy)phenyl)-1H-indazole-5-carboxamide]	< 100	> 500	< 100	100 to 500	–	–
O=C(N[C@H](c1ccccn1)C1CCCC1)c1ccc2[nH]nc(-c3ccc(OC4CCN(C[C@@H](O)C(F)(F)F)CC4)cc3)c2c1 [Example A229, N((S)-cyclopentyl(pyridin-2-yl)methyl)-3-(4-((1-((R)-3,3,3-trifluoro-2-hydroxypropyl)piperidin-4-yl)oxy)phenyl)-1H-indazole-5-carboxamide]	< 100	100 to 500	100 to 500	100 to 500	–	–
CC1(C)CC(=O)c2cc(-c3n[nH]c4ccc(C(=O)N[C@H](c5ccccn5)C5CC5)cc34)ccc2O1 [Example A236, (S)-N-(cyclopropyl(pyridin-2-yl)methyl)-3-(2,2-dimethyl-4-oxochroman-6-yl)-1H-indazole-5-carboxamide]	< 100	> 500	> 500	> 500	–	–
CN1CCC(Oc2ccc(-c3n[nH]c4ccc(C(=O)NCC5(c6ccsc6)CCCCC5)cc34)cc2)CC1 [Example A472, 3-(4-((1-methylpiperidin-4-yl)oxy)phenyl)-N-((1-(thiophen-3-yl)cyclohexyl)methyl)-1H-indazole-5-carboxamide]	< 100	–	–	–	100 to 500	100 to 500
CN1CCC(Oc2ccc(-c3n[nH]c4ccc(C(=O)NCC5(c6ccccc6)CCOCC5)cc34)cc2)CC1 [Example A473, 3-(4-((1-methylpiperidin-4-yl)oxy)phenyl)-N-((4-phenyltetrahydro-2H-pyran-4-yl)methyl)-1H-indazole-5-carboxamide]	< 100	–	–	–	100 to 500	100 to 500
CN1CCC(Oc2ccc(-c3n[nH]c4ccc(C(=O)NCC5(c6ccccn6)CCCCC5)cc34)cc2)CC1 [Example A474, 3-(4-((1-methylpiperidin-4-yl)oxy)phenyl)-N-((1-(pyridin-2-yl)cyclohexyl)methyl)-1H-indazole-5-carboxamide]	< 100	–	–	–	100 to 500	100 to 500
CN1CCC(Oc2ccc(-c3n[nH]c4ccc(C(=O)NCC5(c6ccccc6F)CCOCC5)cc34)cc2)CC1 [Example A476, N-((4-(2-fluorophenyl)tetrahydro-2H-pyran-4-yl)methyl)-3-(4-((1-methylpiperidin-4-yl)oxy)phenyl)-1H-indazole-5-carboxamide]	< 100	–	–	–	100 to 500	100 to 500
CN1CCC(Oc2ccc(-c3n[nH]c4ccc(C(=O)NCC5(c6ccncc6)CCOCC5)cc34)cc2)CC1 [Example A478, 3-(4-((1-methylpiperidin-4-yl)oxy)phenyl)-N-((4-(pyridin-4-yl)tetrahydro-2H-pyran-4-yl)methyl)-1H-indazole-5-carboxamide]	< 100	–	–	–	> 500	> 500
CN1CCC(Oc2ccc(-c3n[nH]c4ccc(C(=O)NCC5(c6ccncc6)CCCCC5)cc34)cc2)CC1 [Example A480, 3-(4-((1-methylpiperidin-4-yl)oxy)phenyl)-N-((1-(pyridin-4-yl)cyclohexyl)methyl)-1H-indazole-5-carboxamide]	< 100	–	–	–	100 to 500	100 to 500
CN1CC[C@@H](Oc2ccc(-c3n[nH]c4ccc(C(=O)NCC5(N6CCOCC6)CCCCC5)cc34)cc2)C1 [Example A481, (R)-3-(4-((1-methylpyrrolidin-3-yl)oxy)phenyl)-N-((1-morpholinocyclohexyl)methyl)-1H-indazole-5-carboxamide]	< 100	–	–	–	100 to 500	100 to 500
O=C(NCC1(N2CCOCC2)CCCCC1)c1ccc2[nH]nc(-c3ccc(N4CC5CCC(C4)O5)cc3)c2c1 [Example A483, 3-(4-(8-oxa-3-azabicydo[3.2.1]octan-3-yl)phenyl)-N-((1-morpholinocyclohexyl)methyl)-1H-indazole-5-carboxamide]	< 100	–	100 to 500	100 to 500	–	–
O=C(NCC1(CN2CCOCC2)CC1)c1ccc2[nH]nc(-c3ccc(N4CCOCC4)cc3)c2c1 [Example A494, N-((1-(morpholinomethyl)cyclopropyl)methyl)-3-(4-morpholinophenyl)-1H-indazole-5-carboxamide]	< 100	–	–	–	> 500	> 500
O=C(NCC1(N2CCOCC2)CCCCC1)c1ccc2[nH]nc(-c3ccc(OC4CCN(C5COC5)CC4)cc3)c2c1 [Example A506, N-((1-morpholinocyclohexyl)methyl)-3-(4-((1-(oxelan-3-yl)piperidin-4-yl)oxy)phenyl)-1H-indazole-5-carboxamide]	< 100	–	< 100	< 100	–	–
O=C(N[C@H](c1ccccn1)C1CCCC1)c1ccc2[nH]nc(-c3ccc(N4C5CCC4CC(O)C5)cc3)c2c1 (some centres unmarked) [Example A513]	< 100	< 100	–	–	–	–
CC(C)[C@H](NC(=O)c1ccc2[nH]nc(-c3ccc(N4C5CCC4CC(O)C5)cc3)c2c1)c1ccccc1Cl (stereo partly drawn) [Example A514, N-((S)-1-(2-chlorophenyl)-2-methylpropyl)-3-(4-((1R,3R,5S)-3-hydroxy-8-azabicyclo[3.2.1]octan-8-yl)phenyl)-1H-indazole-5-carboxamide]	< 100	< 100	–	–	–	–
